The source of these data is patent US7572770B2, “Use of an interleukin 1 receptor antagonist and/or pyrrolidinedithiocarbamate for the treatment or prophylaxis of type 2 diabetes” (University of Zurich, priority 2002, dated 2009).

One experiment concerns the target T1, type I IL-1R (Homo sapiens, UniProt P14778).
T1 sequence (P14778 18-569): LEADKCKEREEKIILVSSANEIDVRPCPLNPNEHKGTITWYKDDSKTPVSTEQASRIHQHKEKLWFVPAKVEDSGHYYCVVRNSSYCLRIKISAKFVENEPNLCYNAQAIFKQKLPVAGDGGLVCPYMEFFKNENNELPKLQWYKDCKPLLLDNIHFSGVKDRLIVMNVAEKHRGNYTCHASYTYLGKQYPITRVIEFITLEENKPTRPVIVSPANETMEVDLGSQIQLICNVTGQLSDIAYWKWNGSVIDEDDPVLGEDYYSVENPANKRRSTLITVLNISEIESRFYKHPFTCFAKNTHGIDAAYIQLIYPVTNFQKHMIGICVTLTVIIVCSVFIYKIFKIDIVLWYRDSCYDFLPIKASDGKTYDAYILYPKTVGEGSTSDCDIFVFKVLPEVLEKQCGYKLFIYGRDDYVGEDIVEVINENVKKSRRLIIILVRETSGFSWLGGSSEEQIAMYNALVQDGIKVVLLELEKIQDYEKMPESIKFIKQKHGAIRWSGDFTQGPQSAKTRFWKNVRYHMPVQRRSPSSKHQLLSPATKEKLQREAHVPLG
The following applies: read-out: Kd, binding to type I IL-1R; cited from earlier work.

In another experiment the test system is IL-1Ra. The experiment in a line: IL-1Ra release and mRNA in human blood monocytes. Type of experiment: cell-based. The following applies: leptin, 15 and 48 hours. As for the experimental part: (§1) Human blood monocytes were isolated as described previously (37), cultured in RPMI 1640 (Invitrogen) containing 100 U/ml penicillin, 100 μg/ml streptomycin and 10% fetal calf serum and exposed to 10 or 500 nM leptin.
RNA extraction and RT-PCR. Islets were cultured in a suspension as described above. Total RNA was extracted using Rneasy mini kit (Qiagen, Basel, Switzerland) and RT-PCR was performed using the Superscript™ II Rnase H-Reverse transcriptase kIT and oligo (dT) (7) (Life technologies, Gaithersburg, Md., USA) according to the instructions from the manufacturers. The following primers were used: 5′[…]3′(SEQ ID. NO. 1)/5′[…]3′ (human IL-1Ra) (SEQ ID.NO. 2) and 5′[…]3′(SEQ ID. NO. 3)/5′[…]3′ (human IL-1β) (SEQ ID. NO. 4). PCR conditions were: denaturation for 30 seconds at 94° C., annealing for 30 seconds at 60° C., and elongation for 30 seconds at 72° C., followed for real time PCR by quantification for 5 seconds at 82° C.; repetition for 40 cycles. Saturation of PCR product occurred between 19 and 33 cycles. […] For quantitative analysis, we used the LightCycler quantitative PCR system (Roche) and performed quantitative PCR with a commercial kit (LightCycler-DNA Master SYBR Green I; Roche). […]
(§2) Cytokine release. Cytokine release was evaluated in the culture medium collected before the termination of each experiment using human IL-1β and IL-1Ra ELISA kits (R&D Systems Inc.).

In a further experiment the test system is IL-1β. The experiment in a line: IL-1β release from human blood monocytes exposed to leptin. It is filed as cell-based. As for the experimental part: as §1, §2

As for “Interleukin 1 receptor antagonist [IL-1Ra]”, the Kd – broadly, the constant that tells how readily two partners part at equilibrium – with type I IL-1R is 0.2 nM.

As for “leptin: rh leptin (PeproTech); protein encoded by the ob gene”, in the experiment with IL-1Ra, the “IL-1Ra release and mRNA in peripheral blood monocytes” value is “A similar dual effect”. Moreover, the “IL-1β release from peripheral blood monocytes” value was “increased IL-1β release” in the experiment with IL-1β (15 hours) and “did not significantly affect IL-1β release” in the experiment on IL-1β (48 hours).
